Experimental data taken from patent US20230322747A1, “OXADIAZOLE HDAC6 INHIBITORS AND USES THEREOF” (Eikonizo Therapeutics, Inc., priority 2022, published 2023).

What was measured:
Human HDAC8 = Human HDAC8 (Homo sapiens (Human), UniProt Q9BY41); assay: Caliper endpoint assay for HDAC8 enzymatic activity; format: biochemical; conditions: in vitro enzymatic
Human HDAC6 = Human HDAC6 (Homo sapiens (Human), UniProt Q9UBN7); assay: HDAC6 enzymatic activity assay (Caliper endpoint or fluorogenic format); format: biochemical; conditions: for IC50: in vitro enzymatic; for Selectivity (6 v 8) (fold): ratio of HDAC8 IC50/HDAC6 IC50
Human HDAC6, sequence (Q9UBN7 whole entry): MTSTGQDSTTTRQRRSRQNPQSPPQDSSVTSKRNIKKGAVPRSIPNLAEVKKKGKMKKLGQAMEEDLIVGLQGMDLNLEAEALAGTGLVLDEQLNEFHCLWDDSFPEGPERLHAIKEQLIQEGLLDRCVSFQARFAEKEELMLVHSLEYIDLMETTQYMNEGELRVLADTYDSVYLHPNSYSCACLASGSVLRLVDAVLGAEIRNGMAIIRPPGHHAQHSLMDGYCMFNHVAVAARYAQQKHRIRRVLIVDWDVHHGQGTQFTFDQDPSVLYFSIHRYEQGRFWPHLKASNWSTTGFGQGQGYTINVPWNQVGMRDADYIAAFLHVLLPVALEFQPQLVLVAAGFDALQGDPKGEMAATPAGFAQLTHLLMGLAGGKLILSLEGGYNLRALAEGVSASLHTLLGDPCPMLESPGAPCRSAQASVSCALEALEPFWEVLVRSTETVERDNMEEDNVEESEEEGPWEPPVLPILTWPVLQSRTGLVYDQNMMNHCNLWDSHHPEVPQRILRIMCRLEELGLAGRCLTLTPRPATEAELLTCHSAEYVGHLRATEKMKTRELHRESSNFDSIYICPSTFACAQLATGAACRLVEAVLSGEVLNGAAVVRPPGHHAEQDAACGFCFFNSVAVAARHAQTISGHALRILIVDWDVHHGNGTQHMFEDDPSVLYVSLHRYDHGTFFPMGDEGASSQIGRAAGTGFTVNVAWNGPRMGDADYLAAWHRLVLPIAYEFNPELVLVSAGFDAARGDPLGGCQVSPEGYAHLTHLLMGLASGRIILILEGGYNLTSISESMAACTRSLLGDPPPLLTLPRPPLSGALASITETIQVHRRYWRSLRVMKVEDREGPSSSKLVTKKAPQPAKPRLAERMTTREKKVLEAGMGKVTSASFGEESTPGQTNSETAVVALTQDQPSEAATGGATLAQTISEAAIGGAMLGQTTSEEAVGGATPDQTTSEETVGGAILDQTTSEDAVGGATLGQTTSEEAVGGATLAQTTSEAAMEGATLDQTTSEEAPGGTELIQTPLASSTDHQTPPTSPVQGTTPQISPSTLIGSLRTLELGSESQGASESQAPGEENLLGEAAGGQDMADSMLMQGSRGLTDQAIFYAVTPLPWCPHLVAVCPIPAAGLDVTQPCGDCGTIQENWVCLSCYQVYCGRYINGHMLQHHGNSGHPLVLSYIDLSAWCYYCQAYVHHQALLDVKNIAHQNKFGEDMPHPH

Human HDAC8, sequence (Q9BY41 whole entry): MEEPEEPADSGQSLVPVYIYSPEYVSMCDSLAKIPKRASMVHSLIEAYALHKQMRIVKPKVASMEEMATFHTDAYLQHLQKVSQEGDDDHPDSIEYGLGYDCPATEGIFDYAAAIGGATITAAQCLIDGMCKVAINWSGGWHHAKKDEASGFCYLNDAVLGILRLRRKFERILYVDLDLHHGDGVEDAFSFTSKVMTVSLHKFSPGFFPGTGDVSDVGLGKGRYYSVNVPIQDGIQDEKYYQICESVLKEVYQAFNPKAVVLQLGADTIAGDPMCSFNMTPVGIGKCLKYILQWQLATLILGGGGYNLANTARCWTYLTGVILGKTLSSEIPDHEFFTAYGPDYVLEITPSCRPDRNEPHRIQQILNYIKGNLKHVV

| SMILES | IC50 (Human HDAC8) | IC50 (Human HDAC6) | Selectivity (6 v 8) (fold) (Human HDAC6) |
| --- | --- | --- | --- |
| CCn1cnc2ccc(OCc3ccc(-c4nnc(C(F)F)o4)cn3)cc21 [Compound 202] | > 100000 nM | 100 to 1000 nM | IV (IV: >100-1000) |
| CC(C)n1cnc2ccc(OCc3ccc(-c4nnc(C(F)F)o4)cn3)cc21 [Compound 203] | > 100000 nM | 1000 to 10000 nM | III (III: >10-100) |
| Cn1nc(-c2nc3ccc(OCc4ccc(-c5nnc(C(F)F)o5)cn4)cc3o2)ccc1=O [Compound 204] | > 100000 nM | 1 to 100 nM | V (V: >1000) |
| FC(F)c1nnc(-c2ccc(COc3ccc4c(c3)ncn4CCN3CCCC3)nc2)o1 [Compound 209] | > 100000 nM | 1000 to 10000 nM | III (III: >10-100) |
| CN(C)CCn1cnc2cc(OCc3ccc(-c4nnc(C(F)F)o4)cn3)ccc21 [Compound 210] | > 100000 nM | 1000 to 10000 nM | III (III: >10-100) |
| CCn1cnc2cc(OCc3ccc(-c4nnc(C(F)F)o4)cn3)ccc21 [Compound 211] | > 100000 nM | 100 to 1000 nM | IV (IV: >100-1000) |
| CC(C)n1cnc2cc(OCc3ccc(-c4nnc(C(F)F)o4)cn3)ccc21 [Compound 212] | > 100000 nM | 100 to 1000 nM | IV (IV: >100-1000) |
